Reference: patent US6221386A (priority 1996, dated 2001)
Like-named read-outs stand apart in the source and are kept apart here.

How the values were obtained:
Type in all cases: in vivo, BALB/c mice
[1] = tested on: Brucella melitensis 16M; settings: intramuscular; 1 mg antibiotic/mouse on days 7, 8 and 9; sacrificed day 12
[2] = tested on: Brucella melitensis 16M; settings: 1 mg ciprofloxacin/mouse intramuscularly, 5 × 10^4 CFU
[3] = tested on: Brucella melitensis 16M; settings: 1 mg/mouse intramuscularly

## O=C(O)c1cn(C2CC2)c2cc(N3CCNCC3)c(F)cc2c1=O [Ciprofloxacin, ciprofloxacin]
[1]
  Spleen counts after antibiotic was given: 1.3 ± 0.4 × 10^4
[2]; single dose 1 day before infection
  B. melitensis 16M counts in spleens 7 days after infection: 1.5 ± 0.3 × 10^4
[2]; single dose 2 days before infection
  B. melitensis 16M counts in spleens 7 days after infection: 2.8 ± 1.0 × 10^4
[2]; single dose 3 days before infection
  B. melitensis 16M counts in spleens 7 days after infection: 1.4 ± 0.2 × 10^4
[2]; single dose 7 days before infection
  B. melitensis 16M counts in spleens 7 days after infection: 1.9 ± 0.4 × 10^4
[3]; single dose 1 day after infection (title; head prints before)
  B. melitensis 16M counts in spleens 7 days after infection: 1.6 ± 0.3 × 10^4
[3]; single dose 2 days after infection (title; head prints before)
  B. melitensis 16M counts in spleens 7 days after infection: 13.0 ± 0.6 × 10^4
[3]; single dose 3 days after infection (title; head prints before)
  B. melitensis 16M counts in spleens 7 days after infection: 3.5 ± 0.9 × 10^4
[3]; single dose 7 days after infection (title; head prints before)
  B. melitensis 16M counts in spleens 7 days after infection: 3.9 ± 1.6 × 10^4

## CN(C)C1C(=O)C(C(N)=O)=C(O)C2(O)C(=O)C3=C(O)c4c(O)cccc4C(C)(O)C3CC12 (stereo not shown) [Tetracycline, tetracycline]
[1]
  Spleen counts after antibiotic was given: 4.8 ± 0.8 × 10^3
